Assay results: ChEMBL document CHEMBL4342418, “1,2,3-Triazole-containing hybrids as potential anticancer agents: Current developments, action mechanisms and structure-activity relationships” (Eur J Med Chem, 2019)
One block for each molecule: values may come before it.

Key:
HepG2 [1] = assay: Antiproliferative activity against human HepG2 cells by MTT assay; format: functional, cell-based
KB = assay: Antiproliferative activity against human KB cells by MTT assay; format: functional, cell-based
MCF7 [2] = assay: cells; format: functional, cell-based; conditions: Homo sapiens
Description: Antiproliferative activity against human MCF7 cells by MTT assay

MDA-MB-231 [3] = assay: Antiproliferative activity against human MDA-MB-231 cells by MTT assay; format: functional, cell-based
T47D = assay: Antiproliferative activity against human T47D cells by MTT assay; format: functional, cell-based
A549 [4] = assay: Antiproliferative activity against human A549 cells assessed as reduction in cell viability after 48 hrs by MTT assay; format: functional, cell-based; conditions: A549, 48 h
DU-145 = assay: Antiproliferative activity against human DU145 cells assessed as reduction in cell viability after 48 hrs by MTT assay; format: functional, cell-based; conditions: DU-145, 48 h
HT-29 = assay: Antiproliferative activity against human HT-29 cells assessed as reduction in cell viability after 48 hrs by MTT assay; format: functional, cell-based; conditions: HT-29, 48 h
MCF7 [5] = assay: Antiproliferative activity against human MCF7 cells assessed as reduction in cell viability after 48 hrs by SRB assay; format: functional, cell-based; conditions: MCF7, 48 h
HeLa [6] = assay: Antiproliferative activity against human HeLa cells assessed as reduction in cell viability after 48 hrs by SRB assay; format: functional
HepG2 [7] = assay: Antiproliferative activity against human HepG2 cells assessed as reduction in cell viability after 48 hrs by SRB assay; format: functional; conditions: HepG2, 48 h
IMR-32 = assay: Antiproliferative activity against human IMR32 cells assessed as reduction in cell viability after 48 hrs by SRB assay; format: functional; conditions: IMR-32, 48 h
A549 [8] = assay: cells; format: functional, cell-based; conditions: Homo sapiens
Description: Antiproliferative activity against human A549 cells by MTT assay

HBL-100 = assay: Antiproliferative activity against human HBL100 cells by MTT assay; format: functional, cell-based
HeLa [9] = assay: Antiproliferative activity against human HeLa cells by MTT assay; format: functional, cell-based
SW1573 = assay: Antiproliferative activity against human SW1573 cells by MTT assay; format: functional, cell-based
WiDr = assay: Antiproliferative activity against human WiDr cells by MTT assay; format: functional, cell-based
MCF-10A = assay: Cytotoxicity against human MCF10A cells by MTT assay; format: cell-based
K562 = assay: Antiproliferative activity against human K562 cells assessed as reduction in cell viability after 24 hrs by MTT assay; format: functional, cell-based; conditions: K562, 24 h
PC-3 = assay: Antiproliferative activity against human PC3 cells assessed as reduction in cell viability after 24 hrs by MTT assay; format: functional, cell-based; conditions: PC-3, 24 h
A-431 = assay: Antiproliferative activity against human A431 cells assessed as reduction in cell viability after 24 hrs by MTT assay; format: functional, cell-based; conditions: A-431, 24 h
MDA-MB-231 [10] = assay: Antiproliferative activity against human MDA-MB-231 cells assessed as reduction in cell viability after 24 hrs by MTT assay; format: functional, cell-based; conditions: MDA-MB-231, 24 h
COLO 205 = assay: Antiproliferative activity against human COLO205 cells assessed as reduction in cell viability after 24 hrs by MTT assay; format: functional, cell-based; conditions: COLO 205, 24 h
A549 [11] = assay: Antiproliferative activity against human A549 cells assessed as reduction in cell viability after 24 hrs by MTT assay; format: functional, cell-based; conditions: A549, 24 h

IC50 (HepG2 [1]): 0.76 µM
IC50 (KB): 0.79 µM
SMILES: O=C(NCc1cn(CC(O)Cn2c3c(c4ccccc4c2=O)C(=O)c2ccccc2-3)nn1)c1ccc(Br)cc1 (stereo not given)

IC50 (MCF7 [2]): 11 to 16.6 µM
IC50 (MDA-MB-231 [3]): 11 to 16.6 µM
IC50 (T47D): 11 to 16.6 µM
SMILES: COc1ccc(Cn2cc(Cn3c4ccccc4c(=O)c4cc(OC)ccc43)nn2)cc1

IC50 (A549 [4]): 0.1 to 1.1 µM
IC50 (DU-145): 0.1 to 1.1 µM
IC50 (HT-29): 0.1 to 1.1 µM
SMILES: O=C(c1cn(Cc2cccc(Oc3ccccc3)c2)nn1)c1cccnc1Nc1ccc(F)cc1

GI50 (MCF7 [5]): 1.8 to 9.7 µM
GI50 (HeLa [6]): 1.8 to 9.7 µM
GI50 (HepG2 [7]): 1.8 to 9.7 µM
SMILES: Cc1ccc(-c2c(OCc3cn(Cc4ccc([N+](=O)[O-])cc4)nn3)cnn2-c2ccc(F)cc2)cc1
GI50 (IMR-32): 1.8 to 9.7 µM

IC50 (A549 [8]): 3.1 to 88 µM
IC50 (HeLa [9]): 3.1 to 88 µM
IC50 (SW1573): 3.1 to 88 µM
IC50 (T47D): 3.1 to 88 µM
SMILES: COC(=O)c1coc([C@H](Cc2ccccc2)n2cc(CC3CC(CCc4ccccc4)CC(O[Si](C)(C)C(C)(C)C)C3)nn2)n1 (stereo not given in full)
IC50 (HBL-100): 3.1 to 88 µM
IC50 (WiDr): 3.1 to 88 µM

SMILES: Cc1cn([C@H]2C[C@H](n3cc(CCOC(=O)CCC(=O)O[C@@H]4O[C@@H]5O[C@@]6(C)CC[C@H]7[C@H](C)CC[C@@H]([C@H]4C)[C@@]57OO6)nn3)[C@@H](CO)O2)c(=O)[nH]c1=O
IC50 (HepG2 [1]): 44.3 µM
IC50 (KB): 16.5 µM

GI50 (MCF7 [5]): 1.8 to 9.7 µM
GI50 (HeLa [6]): 1.8 to 9.7 µM
GI50 (HepG2 [7]): 1.8 to 9.7 µM
SMILES: Cc1ccc(-c2c(OCc3cn(Cc4ccccc4Br)nn3)cnn2-c2ccc(F)cc2)cc1
GI50 (IMR-32): 1.8 to 9.7 µM

IC50 (MCF7 [2]): 6.8 to 27.6 µM
IC50 (MDA-MB-231 [3]): 6.8 to 27.6 µM
SMILES: Cc1c(C(F)(F)F)cc(Cl)c(Cl)c1-n1nnc(-c2nn(-c3ccccc3)cc2C=O)c1C
IC50 (MCF-10A): 21.9 to 25.3 µM

IC50 (A549 [8]): 3.1 to 88 µM
IC50 (HeLa [9]): 3.1 to 88 µM
IC50 (SW1573): 3.1 to 88 µM
IC50 (T47D): 3.1 to 88 µM
SMILES: COC(=O)c1coc(Cn2cc(CC3CC(O[Si](C)(C)C(C)(C)C)CC(C(C)C)C3)nn2)n1 (stereo not given)
IC50 (HBL-100): 3.1 to 88 µM
IC50 (WiDr): 3.1 to 88 µM

GI50 (MCF7 [5]): 1.8 to 9.7 µM
GI50 (HeLa [6]): 1.8 to 9.7 µM
GI50 (HepG2 [7]): 1.8 to 9.7 µM
SMILES: Cc1ccc(-c2c(OCc3cn(Cc4ccccc4Cl)nn3)cnn2-c2ccc(F)cc2)cc1
GI50 (IMR-32): 1.8 to 9.7 µM

IC50 (MCF7 [2]): 31.7 µM
IC50 (MDA-MB-231 [3]): 19.1 µM
SMILES: Cc1c(C(=O)Nc2ccccc2)nnn1-c1ccnc2cc(Cl)ccc12

IC50 (K562): 4.06 to 89.9 µM
IC50 (PC-3): 4.06 to 89.9 µM
IC50 (A-431): 4.06 to 89.9 µM
IC50 (MDA-MB-231 [10]): 4.06 to 89.9 µM
IC50 (COLO 205): 4.06 to 89.9 µM
IC50 (A549 [11]): 4.06 to 89.9 µM
SMILES: CC(=O)c1cccc(-n2cc(CO[C@H]3O[C@@H]4O[C@@]5(C)O[C@]46[C@@H](CC[C@@H](C)[C@@H]6C[C@H]5O)[C@H]3C)nn2)c1

IC50 (A549 [8]): 3.1 to 88 µM
IC50 (HeLa [9]): 3.1 to 88 µM
IC50 (SW1573): 3.1 to 88 µM
IC50 (T47D): 3.1 to 88 µM
SMILES: C=CCC1CC(Cc2cn([C@H](c3nc(C(=O)OC)co3)C(C)CC)nn2)CC(O[Si](C)(C)C(C)(C)C)C1 (stereo not given in full)
IC50 (HBL-100): 3.1 to 88 µM
IC50 (WiDr): 3.1 to 88 µM

IC50 (HepG2 [1]): 1.3 µM
IC50 (KB): 0.3 µM
SMILES: C=C(C)[C@@H]1CC[C@]2(COC(=O)/C=C/C(=O)OCc3cn([C@H]4C[C@H](n5ccc(=O)[nH]c5=O)O[C@@H]4CO)nn3)CC[C@]3(C)[C@H](CC[C@@H]4[C@@]5(C)CC[C@H](O)C(C)(C)[C@@H]5CC[C@]43C)C12 (stereo not given in full)

GI50 (MCF7 [5]): 1.8 to 9.7 µM
GI50 (HeLa [6]): 1.8 to 9.7 µM
GI50 (HepG2 [7]): 1.8 to 9.7 µM
SMILES: COc1ccc(Cn2cc(COc3cnn(-c4ccc(F)cc4)c3-c3ccc(C)cc3)nn2)cc1
GI50 (IMR-32): 1.8 to 9.7 µM

GI50 (MCF7 [5]): 1.8 to 9.7 µM
GI50 (HeLa [6]): 1.8 to 9.7 µM
GI50 (HepG2 [7]): 1.8 to 9.7 µM
SMILES: COc1ccc(Cn2cc(COc3cnn(-c4ccc(C)cc4)c3)nn2)cc1
GI50 (IMR-32): 1.8 to 9.7 µM

IC50 (A549 [8]): 3.1 to 88 µM
IC50 (HeLa [9]): 3.1 to 88 µM
IC50 (SW1573): 3.1 to 88 µM
IC50 (T47D): 3.1 to 88 µM
SMILES: CCC(C)[C@@H](c1nc(C(=O)OC)co1)n1cc(CC2CC(O[Si](C)(C)C(C)(C)C)CC(C(C)C)C2)nn1 (stereo not given in full)
IC50 (HBL-100): 3.1 to 88 µM
IC50 (WiDr): 3.1 to 88 µM

GI50 (MCF7 [5]): 1.8 to 9.7 µM
GI50 (HeLa [6]): 1.8 to 9.7 µM
GI50 (HepG2 [7]): 1.8 to 9.7 µM
SMILES: Cc1ccc(-n2cc(OCc3cn(Cc4ccccc4Br)nn3)cn2)cc1
GI50 (IMR-32): 1.8 to 9.7 µM

GI50 (MCF7 [5]): 1.8 to 9.7 µM
GI50 (HeLa [6]): 1.8 to 9.7 µM
GI50 (HepG2 [7]): 1.8 to 9.7 µM
SMILES: O=[N+]([O-])c1ccc(Cn2cc(COc3cnn(-c4ccccc4)c3-c3ccccc3)nn2)cc1
GI50 (IMR-32): 1.8 to 9.7 µM
